The record followed here is PMC11989107, “Biochemical and Structural Characterization of a Highly Glucose-Tolerant β-Glucosidase from the Termite Reticulitermes perilucifugus” (International Journal of Molecular Sciences, 2025).

For assay [1], the target named is T1, RpBgl8 (Reticulitermes perilucifugus, UniProt A0A7G5VX36, F124W).
T1 construct: forward primer encodes MSALKF
As to the kind of experiment: pNPG hydrolysis with added glucose. Format: biochemical. The conditions noted are these: 5 mM pNPG, phosphate buffer pH 7.0, 37 °C, reference of the reduction (no glucose or wild type) not told.

Assay [2] has as its target T2, RpBgl8 (Reticulitermes perilucifugus, UniProt A0A7G5VX36).
T2 construct: forward primer encodes MSALKF
Description: pNPG hydrolysis with added glucose. In kind it is biochemical.

Structures are written as SMILES.

T1 sequence (A0A7G5VX36 entry or part of it F124W): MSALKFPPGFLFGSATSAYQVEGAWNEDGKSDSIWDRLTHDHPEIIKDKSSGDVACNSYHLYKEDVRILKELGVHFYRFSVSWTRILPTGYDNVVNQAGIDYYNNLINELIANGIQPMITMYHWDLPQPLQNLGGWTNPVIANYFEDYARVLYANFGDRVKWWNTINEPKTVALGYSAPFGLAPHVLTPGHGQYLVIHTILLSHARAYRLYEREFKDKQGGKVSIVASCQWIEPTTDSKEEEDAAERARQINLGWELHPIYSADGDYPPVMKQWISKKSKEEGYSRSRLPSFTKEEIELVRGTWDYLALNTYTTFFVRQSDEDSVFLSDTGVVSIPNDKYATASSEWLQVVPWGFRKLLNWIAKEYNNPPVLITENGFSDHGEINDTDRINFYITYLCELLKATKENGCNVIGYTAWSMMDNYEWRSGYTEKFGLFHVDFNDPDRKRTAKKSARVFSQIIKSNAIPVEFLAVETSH
T2 sequence (A0A7G5VX36 entry or part of it): as the sequence (A0A7G5VX36 entry or part of it F124W) above, with W124F counted along it

Take `OC[C@H]1OC(O)[C@H](O)[C@@H](O)[C@@H]1O` (some centres unmarked) [glucose]: the “% reduction of activity at 4.0 M glucose” value at RpBgl8 [1] turned out to be 54.2%. Also, the activity at 4 M at RpBgl8 [2] is 82%.
